Read-outs that look alike come from different tables or passages of the source.
Legend:
A549 cells = test: MTS cell viability assay, A549; format: cell-based; conditions: Homo sapiens, 72 h, mean ± SD (n = 3), Table 4, read-out: MTS cell viability IC50, Wnt normal A549
Protocol: (§1) MTS Cell Viability Assay. Colorectal cancer cells (SW480 and HCT116), TNBC cells (MDA-MB-231, MDA-MB-468, and BT-20), and lung cancer A549 cells were seeded in 96-well plates at 5×10^3 cells/well, maintained overnight at 37° C., and incubated with the tested compounds at various concentrations. Cell viability was monitored after 72 h using a freshly prepared mixture of 1 part phenazine methosulfate (PMS, Sigma) solution (0.92 mg/mL) and 19 parts 3-(4,5-dimethylthiazol-2-yl)-5-(3-carboxymethoxyphenyl)-2-(4-sulfophenyl)-2H-tetrazolium (MTS, Promega) solution (2 mg/mL). Cells were incubated in 10 μL of this solution at 37° C. for 3 h, and A490 was measured. The effect of each compound is expressed as the concentration required to reduce A490 by 50% (IC50) relative to DMSO-treated cells. Experiments were performed in triplicate.

SW480 cells = test: MTS cell viability assay, SW480; format: cell-based; conditions: mean ± SD (n = 3)
Protocol: as §1

[1] = biological target: T1, β-catenin/Tcf protein-protein interaction (Homo sapiens, UniProt P35222); test: FP competitive inhibition assay; format: binding
T1 construct: Wild-type β-catenin (residues 138-781) were cloned into a pET-28b vector; 6×histidine (C); made in house; host or cells: E. coli BL21 DE3
T1 sequence (P35222 138-781): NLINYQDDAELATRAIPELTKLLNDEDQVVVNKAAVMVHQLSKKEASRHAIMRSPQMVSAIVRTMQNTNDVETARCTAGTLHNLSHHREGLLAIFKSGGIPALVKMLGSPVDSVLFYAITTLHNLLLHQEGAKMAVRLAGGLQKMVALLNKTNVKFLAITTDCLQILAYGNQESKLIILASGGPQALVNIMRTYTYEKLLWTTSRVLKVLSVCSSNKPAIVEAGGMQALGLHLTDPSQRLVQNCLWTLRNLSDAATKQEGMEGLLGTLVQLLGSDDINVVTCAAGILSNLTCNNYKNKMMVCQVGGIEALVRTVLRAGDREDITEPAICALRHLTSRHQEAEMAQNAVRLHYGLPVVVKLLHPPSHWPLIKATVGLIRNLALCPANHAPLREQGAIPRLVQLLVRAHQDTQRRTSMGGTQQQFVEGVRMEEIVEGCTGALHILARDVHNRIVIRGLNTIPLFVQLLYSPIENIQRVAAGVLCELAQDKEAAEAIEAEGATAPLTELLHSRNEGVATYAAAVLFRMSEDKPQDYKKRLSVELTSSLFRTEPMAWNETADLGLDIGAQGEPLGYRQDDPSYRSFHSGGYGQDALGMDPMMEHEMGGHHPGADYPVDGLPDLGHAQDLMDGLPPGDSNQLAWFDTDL
Outline: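 His-tagged human β-catenin (residues 138-781, E. coli-expressed) at 10 nM with 2.5 nM fluorescein-labeled Tcf4 (7-51) in PBS-type buffer with bovine γ-globulin and 0.01% Triton X-100. Compounds added, 1.5 h at 4 °C, 1% DMSO, before fluorescence polarization read. IC50 by nonlinear fit; Ki derived from IC50.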

[2] = system: Wnt/β-catenin transactivation; test: Wnt-responsive TOPFlash luciferase reporter assay, β-catenin-activated HEK cells; format: cell-based; conditions: HEK293, read-out: TOPFlash IC50 ± SD, β-catenin-activated HEK293, 24 h treatment, mean ± SD (n = 3), read-out: TOPFlash IC50 ± SD, β-catenin-activated HEK239
Protocol: Cell Transfection and Luciferase Assay. FuGENE 6 (E2962, Promega) in the 96-well plate format was used for the transfection of HEK293 cells according to the manufacturer's instructions. HEK293 cells were co-transfected with 45 ng of the TOPFlash or FOPFlash reporter gene, and 135 ng of pcDNA3.1-β-catenin. Cells were cultured in DMEM and 10% fatal bovine serum (FBS) at 37° C. for 24 h, and different concentrations of inhibitors were then added. After 24 h, the luciferase reporter activity was measured using the Dual-Glo system (E2940, Promega). Normalized luciferase activity in response to the treatment with the inhibitors was compared with that obtained from the cells treated with DMSO. Experiments were performed in triplicate.

HCT116 cells = test: MTS cell viability assay, HCT116; format: cell-based; conditions: Homo sapiens, HCT-116; 72 h; mean ± SD (n = 3); Table 5; read-out: MTS cell viability IC50, Wnt hyperactive cancer cells HCT116
Protocol: as §1

[3] = system: Wnt/β-catenin transactivation; test: Wnt-responsive TOPFlash luciferase reporter assay, SW480; format: cell-based; conditions: Homo sapiens, mean ± SD (n = 3), Table 6
[4] = Homo sapiens, SW480, 72 h, Table 4, read-out: MTS cell viability IC50, Wnt hyperactive SW480 Cells (converted)
[5] = Assay 1, mean ± SD (n = 3), read-out: Ki ± SD, Assay 1
[6] = Assay 2, mean ± SD (n = 3), read-out: Ki ± SD, Assay 2
[7] = Assay 3, mean ± SD (n = 3), read-out: Ki ± SD, Assay 3
[8] = Homo sapiens, SW480, 72 h, Table 5, read-out: MTS cell viability IC50, Wnt hyperactive cancer cells SW480
[9] = Assay 4, mean ± SD (n = 3), read-out: Ki ± SD, Assay 4

Row | SMILES | IC50 (SW480 cells; [4]) [µM] | Ki [1, 5] [µM] | Ki [1, 6] [µM] | Ki [1, 7] [µM] | IC50 ([2]; Table 7) [µM] | IC50 (SW480 cells; [8]) [µM] | IC50 (HCT116 cells) [µM] | Ki [1, 9] [µM] | Ki ([1]; Assay 5, mean ± SD (n = 3), read-out: Ki ± SD, Assay 5) [µM] | IC50 ([2]; Table 6) [µM] | IC50 (SW480 cells; 72 h, Table 4, read-out: MTS cell viability IC50, Wnt hyperactive SW480 Cells (converted)) [µM] | IC50 [3] [µM] | IC50 (A549 cells) [µM]
1 | Cc1ccc(CCc2c(-c3csc(C(F)F)c3)n(CCc3nn[nH]n3)c3ccc(C(=O)NCc4ccon4)cc23)cc1 [Compound 94, 1-(2-(2H-tetrazol-5-yl)ethyl)-2-(5-(difluoromethyl)thiophen-3-yl)-N-(isoxazol-3-ylmethyl)-3-(4-methylphenethyl)-1H-indole-5-carboxamide] | – | 2.7 ± 0.26 | 4.9 ± 0.36 | 26 ± 2.7 | 9.9 ± 1.5 | 32 ± 3.6 | 46 ± 5.3 | – | – | – | – | – | –
2 | Cc1ccc(CCc2c(-c3ccsc3)n(CCc3nn[nH]n3)c3ccc(C(=O)O)cc23)cc1 [Compound 78, 1-(2-(2H-tetrazol-5-yl)ethyl)-3-(4-methylphenethyl)-2-(thiophen-3-yl)-1H-indole-5-carboxylic acid] | – | 0.4 ± 0.14 | 0.97 ± 0.14 | 0.25 ± 0.079 | – | > 400 | > 400 | 0.36 ± 0.07 | 0.23 | – | – | – | –
3 | Cc1ccc(CCc2c(-c3ccsc3)n(CCc3nn[nH]n3)c3ccc(C(=O)NOC4CCCCO4)cc23)cc1 (stereo not shown) [Compound 92, 1-(2-(2H-tetrazol-5-yl)ethyl)-3-(4-methylphenethyl)-N-((tetrahydro-2H-pyran-2-yl)oxy)-2-(thiophen-3-yl)-1H-indole-5-carboxamide] | – | 10 ± 1.6 | – | – | 50 ± 5.7 | 81 ± 17 | – | – | – | – | – | – | –
4 | Cc1ccc(CCc2c(-c3ccsc3)n(CCc3nn[nH]n3)c3ccc(C(=O)NCc4ccon4)cc23)cc1 [Compound 93, 1-(2-(2H-tetrazol-5-yl)ethyl)-N-(isoxazol-3-ylmethyl)-3-(4-methylphenethyl)-2-(thiophen-3-yl)-1H-indole-5-carboxamide] | – | 7.2 ± 0.77 | 7.4 ± 0.23 | 13 ± 1.3 | – | 36 ± 3.9 | 44 ± 5.4 | – | – | – | – | – | –
5 | COC(=O)c1ccc2c(c1)c(CCc1ccc(Cl)cc1)c(CCc1nc3ccccc3[nH]1)n2CCc1nn[nH]n1 [Compound 34, Methyl 2-(2-(1H-benzo[d]imidazol-2-yl)ethyl)-1-(2-(2H-tetrazol-5-yl)ethyl)-3-(4-chlorophenethyl)-1H-indole-5-carboxylate] | 69 ± 11 | – | – | – | – | – | – | – | – | – | – | – | 120 ± 44
6 | O=C(NCc1ccc(F)cc1)c1ccc2c(c1)c(CCc1ccc(F)cc1)c(CCc1nc3ccccc3s1)n2CCc1nn[nH]n1 [Compound 44, 1-(2-(2H-tetrazol-5-yl)ethyl)-2-(2-(benzo[d]thiazol-2-yl)ethyl)-N-(4-fluorobenzyl)-3-(4-fluoro-phenethyl)-1H-indole-5-carboxamide] | 12 ± 1.4 | 1.6 ± 0.37 | 0.35 ± 0.15 | 1.3 ± 0.37 | – | – | – | 0.92 ± 0.06 | – | 42 ± 5.8 | – | 12 ± 1.3 | 42 ± 5.8

Further lines, with some results ahead:

Row | IC50 (SW480 cells; [4]) [µM] | Ki [1, 5] [µM] | Ki [1, 6] [µM] | Ki [1, 7] [µM] | IC50 ([2]; Table 7) [µM] | IC50 (SW480 cells; [8]) [µM] | IC50 (HCT116 cells) [µM] | Ki [1, 9] [µM] | Ki ([1]; Assay 5, mean ± SD (n = 3), read-out: Ki ± SD, Assay 5) [µM] | IC50 ([2]; Table 6) [µM] | IC50 (SW480 cells; 72 h, Table 4, read-out: MTS cell viability IC50, Wnt hyperactive SW480 Cells (converted)) [µM] | IC50 [3] [µM] | SMILES | IC50 (A549 cells) [µM]
7 | 160 ± 17 | 2.6 ± 0.57 | 0.22 ± 0.06 | 2.6 ± 0.32 | – | – | – | – | – | – | – | – | COc1ccc2sc(CCc3c(CCc4ccc(Cl)cc4)c4cc(C(=O)OCc5ccc(Cl)cc5)ccc4n3CCc3nn[nH]n3)nc2c1 [Compound 70, 4-Chlorobenzyl 1-(2-(2H-tetrazol-5-yl)ethyl)-3-(4-chlorophenethyl)-2-(2-(5-methoxybenzo-[d]thiazol-2-yl)ethyl)-1H-indole-5-carboxylate] | 310 ± 27
8 | – | 2.9 ± 0.5 | 5.1 ± 0.42 | – | – | 13 ± 1.7 | 20 ± 2.7 | – | – | – | – | – | COc1ccc2sc(CCc3c(CCc4ccc(Cl)cc4)c4cc(C(=O)NCc5ccccn5)ccc4n3CCc3nn[nH]n3)nc2c1 [Compound 55, 1-(2-(2H-tetrazol-5-yl)ethyl)-3-(4-chlorophenethyl)-2-(2-(5-methoxybenzo[d]thiazol-2-yl)ethyl)-N-(pyridin-2-ylmethyl)-1H-indole-5-carboxamide] | –
9 | 3.1 ± 1.8 | 4.1 ± 1.1 | – | – | – | – | – | – | – | 11 ± 2.3 | 3.2 | 4.3 ± 1.2 | COC(=O)c1ccc2c(c1)c(CCc1ccc(Cl)cc1)c(CCc1nc3cc(OC)ccc3s1)n2CCc1nn[nH]n1 [Compound 35, Methyl 1-(2-(2H-tetrazol-5-yl)ethyl)-3-(4-chlorophenethyl)-2-(2-(5-methoxybenzo[d]thiazol-2-yl)ethyl)-1H-indole-5-carboxylate] | 13 ± 5.9
10 | – | 4.2 ± 0.43 | 1.9 ± 0.17 | – | – | 14 ± 1.7 | 23 ± 2.5 | – | – | – | – | – | COc1ccc2sc(CCc3c(CCc4ccc(Cl)cc4)c4cc(C(=O)NCc5ccncc5)ccc4n3CCc3nn[nH]n3)nc2c1 [Compound 56, 1-(2-(2H-tetrazol-5-yl)ethyl)-3-(4-chlorophenethyl)-2-(2-(5-methoxybenzo[d]thiazol-2-yl)ethyl)-N-(pyridin-4-ylmethyl)-1H-indole-5-carboxamide] | –
11 | – | 0.93 ± 0.092 | 4.7 ± 0.28 | – | – | 14 ± 1.9 | 18 ± 2.8 | – | – | – | – | – | COc1ccc2sc(CCc3c(CCc4ccc(Cl)cc4)c4cc(C(=O)NCc5csc(C)n5)ccc4n3CCc3nn[nH]n3)nc2c1 [Compound 60, 1-(2-(2H-tetrazol-5-yl)ethyl)-3-(4-chlorophenethyl)-2-(2-(5-methoxybenzo[d]thiazol-2-yl)ethyl)-N-((2-methylthiazol-4-yl)methyl)-1H-indole-5-carboxamide] | –
12 | – | 1 ± 0.094 | 2.9 ± 0.24 | – | – | 35 ± 4.3 | 40 ± 5.3 | – | – | – | – | – | COc1ccc2sc(CCc3c(CCc4ccc(Cl)cc4)c4cc(C(=O)NCc5ccno5)ccc4n3CCc3nn[nH]n3)nc2c1 [Compound 61, 1-(2-(2H-tetrazol-5-yl)ethyl)-3-(4-chlorophenethyl)-N-(isoxazol-5-ylmethyl)-2-(2-(5-methoxybenzo[d]thiazol-2-yl)ethyl)-1H-indole-5-carboxamide] | –

— patent publication US11530186B2, “Inhibitors for the β-catenin / T-cell factor protein-protein interaction” (H. LEE MOFFITT CANCER CENTER AND RESEARCH INSTITUTE, INC., priority 2018, dated 2022)
